Test results from patent US20250066379A1, “ANTIMALARIAL AGENTS” (Merck Sharp & Dohme LLC, priority 2021, published 2025).

Tested on: parasite
Assay: Parasite LDH growth assay (Parasite Assay)
Type: cell-based, Plasmodium falciparum
Conditions: ring stage parasites, 72 hours growth at 37° C., LDH readout of parasite growth
Protocol: Assessing Antiparasite Potency in a Parasite LDH Growth Assay (Parasite Assay) The parasite stock was maintained at 4% haematocrit in RPMI-Hepes media 30 buffered with sodium bicarbonate and supplemented with 5% heat inactivated human serum and 0.5% albumax. Approximately 42 hours prior to the potency assay being set up, parasites were synchronized with 5% sorbitol to select for ring stage parasites. On the day of assay set up, a blood smear of the parasite culture was Giemsa stained and counted. The parasitemia was 35 adjusted to 0.7% rings and the haematocrit was diluted to 2% in RPMI-Hepes media buffered with sodium bicarbonate and supplemented with 5% heat inactivated human serum and 0.5% albumax. 30 ul of diluted parasites are then added into 10 μl of media+compound in pre-prepared Greiner TC assay plates. Parasite assay plates were placed in gassed humidified boxes in single layer and allowed to incubate at 37° C. for 72 hours. After 72 hours growth, assay plates are sealed with parafilm and frozen flat, in single file at −80° C. overnight. On the following day, assay plates were allowed to thaw at room temperature for 4 hours to which an LDH assay was performed to measure parasite growth.

SMILES | EC50 (Plasmodium falciparum, 72 h) | EC50
CCC12CCCCCc3ccc4c(c3)[C@H](CC(C)(C)O4)NC(=O)c3ccc4c(c3)[C@@H]([C@H](COC)CO4)N(C(=N)N1)C(=O)C2 (mixture of isomers) [Example 16B, rac-(1R,18S,27R)-5-ethyl-3-imino-27-(methoxymethyl)-16,16-dimethyl-15,25-dioxa-2,4,19-triazahexacyclo[19. 6.2.22,5.211,14.013, 18.024,28] tritriaconta-11,13,21,23,28,30-hexaene-20,33-dione] | 3.4 nM | 
CCC12CCCC3CC3c3ccc4c(c3)[C@H](CC(C)(C)O4)NC(=O)c3ccc4c(c3)[C@@H]([C@H](COC)CO4)N(C(=N)N1)C(=O)C2 (mixture of isomers) [Example 17, rac-(12R,13R,22S)-8-ethyl-10-imino-13-(methoxymethyl)-24,24-dimethyl-15,25-dioxa-9,11,21-triazaheptacyclo[20. 6.2.28,11.216,19.02, 4.012,17.026,30] tetratriaconta-1(29),16(32),17,19 (31),26(30),27-hexaene-20,33-dione] | 18.9 nM | 
CC[C@]12CCC/C=C/c3ccc4c(c3)[C@H](CCO4)NC(=O)c3ccc4c(c3)[C@@H](CCO4)N(C(=N)N1)C(=O)C2 (racemic) [Example 18, rac-(1R,5R,9E,18S)-5-ethyl-3-imino-15,25-dioxa-2,4,19-triazahexacyclo[19. 6.2.22,5.211,14.013, 18.024,28] tritriaconta-9,11,13,21,23,28,30-heptaene-20,33-dione] | 6 nM | 
CC[C@]12CCCCCc3ccc4c(c3)[C@H](CCO4)NC(=O)c3ccc4c(c3)[C@@H](CCO4)N(C(=N)N1)C(=O)C2 (racemic) [Example 19, rac-(1R,5R,18S)-5-ethyl-3-imino-15,25-dioxa-2,4,19-triazahexacyclo[19. 6.2.22,5.211,14.013, 18.024,28] tritriaconta-11,13,21,23,28,30-hexaene-20,33-dione] | 4.8 nM | 
CCC12CC/C=C/c3ccc4c(c3)[C@H](CC(C)(C)O4)NC(=O)c3ccc4c(c3)[C@@H](CCO4)N(C(=N)N1)C(=O)C2 (mixture of isomers) [Example 20, rac-(1R,8E,17S)-5-ethyl-3-imino-15,15-dimethyl-14,24-dioxa-2,4,18-triazahexacyclo[18. 6.2.22,5.210,13.012, 17.023,27] dotriaconta-8,10,12,20,22,27,29-heptaene-19,32-dione] | 3.6 nM | 
CC[C@]12CCCC3CC3c3ccc4c(c3)[C@H](CCO4)NC(=O)c3ccc4c(c3)[C@@H](CCO4)N(C(=N)N1)C(=O)C2 (mixture of isomers) [Example 21, rac-(8R,12R,22S)-8-ethyl-10-imino-15,25-dioxa-9,11,21-triazaheptacyclo[20. 6.2.28,11.216,19.02, 4.012,17.026,30] tetratriaconta-1(29),16(32),17,19 (31),26(30),27-hexaene-20,33-dione] | 5.1 nM | 
CC[C@]12CCCCCc3ccc4c(c3)OC(C)(C)C[C@@H]4NC(=O)c3ccc4c(c3)[C@@H](CCO4)N(C(=N)N1)C(=O)C2 (racemic) [Example 22, rac-(1R,5R,19S)-5-ethyl-3-imino-17,17-dimethyl-16,26-dioxa-2,4,20-triazahexacyclo[20. 6.2.22,5.111,15.014, 19.025,29] tritriaconta-11(31),12,14,22,24, 29-hexaene-21,33-dione] | 57.4 nM | 
CCC12CCCCC/C=C\c3ccc4c(c3)OC(C)(C)C[C@@H]4NC(=O)c3ccc4c(c3)[C@@H](CCO4)N(C(=N)N1)C(=O)C2 (racemic) [Example 23, rac-(1R,11Z,21S)-5-ethyl-3-imino-19,19-dimethyl-18,28-dioxa-2,4,22-triazahexacyclo[22. 6.2.22,5.113,17.016, 21.027,31] pentatriaconta-11,13(33),14,16,24, 26,31-heptaene-23,35-dione] | 7.5 nM | 
CCC12CCCCCCCc3ccc4c(c3)OC(C)(C)C[C@@H]4NC(=O)c3ccc4c(c3)[C@@H](CCO4)N(C(=N)N1)C(=O)C2 (racemic) [Example 24A, rac-(1R,21S)-5-ethyl-3-imino-19,19-dimethyl-18,28-dioxa-2,4,22-triazahexacyclo[22. 6.2.22,5.113,17.016, 21.027,31] pentatriaconta-13(33),14,16,24,26, 31-hexaene-23,35-dione] |  | 5.4 nM
CCC12CCCCCCCc3ccc4c(c3)OC(C)(C)C[C@@H]4NC(=O)c3ccc4c(c3)[C@@H](CCO4)N(C(=N)N1)C(=O)C2 (racemic) [Example 24B, rac-(1R,21S)-5-ethyl-3-imino-19,19-dimethyl-18,28-dioxa-2,4,22-triazahexacyclo[22. 6.2.22,5.113,17.016, 21.027,31] pentatriaconta-13(33),14,16,24,26, 31-hexaene-23,35-dione] |  | 2 nM
COC[C@@H]1COc2ccc3cc2[C@@H]1N1C(=N)NC(C)(CCCCCc2ccc4c(c2)[C@H](CC(C)(C)O4)NC3=O)CC1=O (mixture of isomers) [Example 25A, rac-(1R,18S,27R)-3-imino-27-(methoxymethyl)-5,16,16-trimethyl-15,25-dioxa-2,4,19-triazahexacyclo[19. 6.2.22,5.211,14.013, 18.024,28] tritriaconta-11,13,21,23,28,30-hexaene-20,33-dione] |  | 23 nM
COC[C@@H]1COc2ccc3cc2[C@@H]1N1C(=N)NC(C)(CCCCCc2ccc4c(c2)[C@H](CC(C)(C)O4)NC3=O)CC1=O (mixture of isomers) [Example 25B, rac-(1R,18S,27R)-3-imino-27-(methoxymethyl)-5,16,16-trimethyl-15,25-dioxa-2,4,19-triazahexacyclo[19. 6.2.22,5.211,14.013, 18.024,28] tritriaconta-11,13,21,23,28,30-hexaene-20,33-dione] |  | 0.7 nM
CCC12CCC/C=C/c3ccc4c(c3)[C@H](CC(C)(C)O4)NC(=O)c3ccc4c(c3)[C@@H]([C@H](COC)CO4)N(C(=N)N1)C(=O)C2 (mixture of isomers) [Example 26A, rac-(1R,9E,18S,27R)-5-ethyl-3-imino-27-(methoxymethyl)-16,16-dimethyl-15,25-dioxa-2,4,19-triazahexacyclo[19. 6.2.22,5.211,14.013, 18.024,28] tritriaconta-9,11,13,21,23,28,30-heptaene-20,33-dione] |  | 190 nM
CCC12CCC/C=C/c3ccc4c(c3)[C@H](CC(C)(C)O4)NC(=O)c3ccc4c(c3)[C@@H]([C@H](COC)CO4)N(C(=N)N1)C(=O)C2 (mixture of isomers) [Example 26B, rac-(1R,9E,18S,27R)-5-ethy1-3-imino-27-(methoxymethyl)-16,16-dimethyl-15,25-dioxa-2,4,19-triazahexacyclo[19. 6.2.22,5.211,14.013, 18.024,28] tritriaconta-9,11,13,21,23,28,30-heptaene-20,33-dione] |  | 7.4 nM
CCC12CCCCCc3ccc4c(c3)[C@@H](NC(=O)c3ccc5c(c3)[C@@H]([C@H](COC)CO5)N(C(=N)N1)C(=O)C2)[C@H](O)C4 (single isomer, unassigned) [Example 15A] |  | 9.2 nM
CCC12CCCCCc3ccc4c(c3)[C@@H](NC(=O)c3ccc5c(c3)[C@@H]([C@H](COC)CO5)N(C(=N)N1)C(=O)C2)[C@H](O)C4 (single isomer, unassigned) [Example 15B] |  | 81 nM
CC[C@]12CCCC(C)c3ccc4c(c3)[C@@H](NC(=O)c3ccc5c(c3)[C@@H](CCO5)N(C(=N)N1)C(=O)C2)[C@H](O)C4 (stereo partly drawn) [Example 1, (1R,5R,15R,16R)-5-ethyl-15-hydroxy-3-imino-9-methyl-23-oxa-2,4,17-triazahexacyclo[17.6.2.22,5.210,13.012,16.022,26]hentriaconta-10,12,19,21,26,28-hexaene-18,31-dione] | 2.7 nM | 
CC[C@]12CCCCCc3ccc4c(c3)[C@@H](NC(=O)c3ccc5c(c3)[C@@H](CCO5)N(C(=N)N1)C(=O)C2)[C@H](O)C4 [Example 2, (1R,5R,16R,17R)-5-ethyl-16-hydroxy-3-imino-24-oxa-2,4,18-triazahexacyclo[18.6.2.22,5.211,14.013,17.023,27]dotriaconta-11,13,20,22,27,29-hexaene-19,32-dione] | 11 nM | 
CC[C@]12CCCCc3ccc4c(c3)[C@H](CC(C)(C)O4)NC(=O)c3ccc4c(c3)[C@@H](CCO4)N(C(=N)N1)C(=O)C2 [Example 3A, (1R,5R,17S)-5-ethyl-3-imino-15,15-dimethyl-14,24-dioxa-2,4,18-triazahexacyclo[18.6.2.22,5.210,13.012,17.023,27]dotriaconta-10,12,20,22,27,29-hexaene-19,32-dione] | 0.2 nM | 
CC[C@@]12CCCCc3ccc4c(c3)[C@H](CC(C)(C)O4)NC(=O)c3ccc4c(c3)[C@@H](CCO4)N(C(=N)N1)C(=O)C2 [Example 3B, (1R,5S,17S)-5-ethyl-3-imino-15,15-dimethyl-14,24-dioxa-2,4,18-triazahexacyclo[18. 6.2.22,5.210,13.012, 17.023,27] dotriaconta-10,12,20,22,27,29-hexaene-19,32-dione] | 270 nM | 
CC[C@]12CCCCOc3ccc4c(c3)[C@H](CC(C)(C)O4)NC(=O)c3ccc4c(c3)[C@@H](CCO4)N(C(=N)N1)C(=O)C2 [Example 4, (1R,5R,18S)-5-ethyl-3-imino-16,16-dimethyl-10,15,25-trioxa-2,4,19-triazahexacyclo[19.6.2.22,5.211,14.013,18.024,28]tritriaconta-11,13,21,23,28,30-hexaene-20,33-dione] | 2 nM | 
CC[C@]12CCC/C=C/c3ccc4c(c3)[C@@H](NC(=O)c3ccc5c(c3)[C@@H](CCO5)N(C(=N)N1)C(=O)C2)[C@H](O)C4 [Example 5, (1R,5R,9E,16R, 17R)-5-ethyl-16-hydroxy-3-imino-24-oxa-2,4,18-triazahexacyclo[18. 6.2.22,5.211,14.013, 17.023,27] dotriaconta-9,11,13,20,22,27, 29-heptaene-19,32-dione] | 0.9 nM | 
